{"source": "ChEMBL document CHEMBL1201862", "about": "“PubChem BioAssay data set” (2004)", "key": {"[1]": {"target": "DNA dC->dU-editing enzyme APOBEC-3G (Homo sapiens, UniProt Q9HC16)", "sequence (Q9HC16 whole entry)": "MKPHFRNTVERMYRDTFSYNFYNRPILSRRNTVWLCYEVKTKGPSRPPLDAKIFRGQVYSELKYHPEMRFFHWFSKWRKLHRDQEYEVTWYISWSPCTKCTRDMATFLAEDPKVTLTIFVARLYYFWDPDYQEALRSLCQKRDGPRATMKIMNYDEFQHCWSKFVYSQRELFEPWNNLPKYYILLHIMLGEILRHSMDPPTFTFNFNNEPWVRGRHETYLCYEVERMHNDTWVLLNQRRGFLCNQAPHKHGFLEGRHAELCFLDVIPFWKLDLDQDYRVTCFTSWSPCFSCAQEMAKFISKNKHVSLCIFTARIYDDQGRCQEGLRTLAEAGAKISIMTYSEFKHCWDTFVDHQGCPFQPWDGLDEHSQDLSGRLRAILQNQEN", "assay_type": "functional"}, "[2]": {"target": "DNA dC->dU-editing enzyme APOBEC-3A (Homo sapiens, UniProt P31941)", "sequence (P31941 whole entry)": "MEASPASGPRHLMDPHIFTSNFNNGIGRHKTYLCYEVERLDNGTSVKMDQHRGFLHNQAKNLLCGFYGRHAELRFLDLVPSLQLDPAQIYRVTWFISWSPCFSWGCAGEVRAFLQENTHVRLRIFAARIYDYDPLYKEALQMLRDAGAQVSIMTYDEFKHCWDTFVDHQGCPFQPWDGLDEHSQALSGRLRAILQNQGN", "experiment": "Dose Response confirmation of small molecule APOBEC3A DNA Deaminase Inhibitors via a fluorescence-based single-stranded DNA deaminase assay. [Related pubchem assays (depositor defined):AID493011, AID493024]", "assay_type": "functional"}, "[3]": {"target": "T1, Tyrosine-protein phosphatase non-receptor type 7 (Homo sapiens, UniProt P35236)", "T1 sequence (P35236 whole entry)": "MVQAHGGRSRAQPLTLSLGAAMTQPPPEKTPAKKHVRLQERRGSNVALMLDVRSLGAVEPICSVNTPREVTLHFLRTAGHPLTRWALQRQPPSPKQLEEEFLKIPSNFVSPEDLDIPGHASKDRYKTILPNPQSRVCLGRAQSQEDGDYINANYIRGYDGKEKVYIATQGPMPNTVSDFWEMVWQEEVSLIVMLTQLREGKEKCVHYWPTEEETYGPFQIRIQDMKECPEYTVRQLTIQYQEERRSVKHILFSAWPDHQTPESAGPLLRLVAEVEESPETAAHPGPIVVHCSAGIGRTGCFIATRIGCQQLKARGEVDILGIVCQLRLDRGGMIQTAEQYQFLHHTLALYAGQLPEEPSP", "experiment": "redox-active compounds inhibiting HePTP phosphatase – biochemical, fluorescence, mechanism study (AID 2068)", "assay_type": "functional"}, "Protein RecA": {"target": "T2, Protein RecA (Mycobacterium tuberculosis, UniProt P9WHJ3)", "T2 sequence (P9WHJ3 whole entry)": "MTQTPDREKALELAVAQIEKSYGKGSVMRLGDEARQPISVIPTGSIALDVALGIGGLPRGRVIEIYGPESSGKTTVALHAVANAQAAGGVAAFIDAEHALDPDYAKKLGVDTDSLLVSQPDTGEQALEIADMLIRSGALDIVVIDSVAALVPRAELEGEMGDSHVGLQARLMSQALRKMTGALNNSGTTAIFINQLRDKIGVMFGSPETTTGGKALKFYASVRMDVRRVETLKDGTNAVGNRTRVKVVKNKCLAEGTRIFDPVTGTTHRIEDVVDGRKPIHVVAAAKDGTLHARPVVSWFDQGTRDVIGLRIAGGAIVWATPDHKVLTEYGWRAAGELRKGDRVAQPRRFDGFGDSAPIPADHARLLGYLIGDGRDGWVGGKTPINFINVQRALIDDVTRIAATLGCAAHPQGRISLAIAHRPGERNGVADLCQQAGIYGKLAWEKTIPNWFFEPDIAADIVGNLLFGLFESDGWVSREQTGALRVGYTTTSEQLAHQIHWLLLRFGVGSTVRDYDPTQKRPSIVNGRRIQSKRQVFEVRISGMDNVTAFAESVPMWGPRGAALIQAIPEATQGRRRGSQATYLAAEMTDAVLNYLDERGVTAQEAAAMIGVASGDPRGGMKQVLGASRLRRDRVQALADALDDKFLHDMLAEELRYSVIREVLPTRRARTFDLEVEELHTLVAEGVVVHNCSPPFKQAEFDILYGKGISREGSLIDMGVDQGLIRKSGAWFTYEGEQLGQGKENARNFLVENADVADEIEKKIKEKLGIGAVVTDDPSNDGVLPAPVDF", "experiment": "Fluorescence Cell-Free Homogeneous Dose Retest to Identify Inhibitors of RecA-Intein Splicing Activity. [Related pubchem assays (depositor defined):AID2097, AID2223, AID489010, AID492950]", "assay_type": "functional"}, "[4]": {"target": "T3, Alkaline phosphatase, tissue-nonspecific isozyme (Homo sapiens, UniProt P05186)", "T3 sequence (P05186 whole entry)": "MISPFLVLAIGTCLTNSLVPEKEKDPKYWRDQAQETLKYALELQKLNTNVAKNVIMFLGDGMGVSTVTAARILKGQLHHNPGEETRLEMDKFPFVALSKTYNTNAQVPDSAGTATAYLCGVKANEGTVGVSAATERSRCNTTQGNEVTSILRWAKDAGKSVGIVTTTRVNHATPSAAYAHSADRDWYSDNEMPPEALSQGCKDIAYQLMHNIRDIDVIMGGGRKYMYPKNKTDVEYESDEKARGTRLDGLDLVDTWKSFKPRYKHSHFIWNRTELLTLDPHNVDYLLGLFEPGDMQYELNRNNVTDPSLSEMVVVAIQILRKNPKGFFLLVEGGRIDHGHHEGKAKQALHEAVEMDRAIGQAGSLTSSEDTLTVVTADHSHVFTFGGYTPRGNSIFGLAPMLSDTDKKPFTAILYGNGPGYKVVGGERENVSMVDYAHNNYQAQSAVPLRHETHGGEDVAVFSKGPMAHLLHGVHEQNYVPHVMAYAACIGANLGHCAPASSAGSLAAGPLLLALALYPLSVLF", "experiment": "TNAP enzyme inhibition by screening hits, dose response, selectivity assay for mouse IAP inhibitor project, biochemical, human TNAP, uHTS hits (AID 488906)", "assay_type": "functional"}, "Aspartyl aminopeptidase": {"target": "T4, Aspartyl aminopeptidase (Plasmodium falciparum 3D7, UniProt Q8I2J3)", "T4 sequence (Q8I2J3 whole entry)": "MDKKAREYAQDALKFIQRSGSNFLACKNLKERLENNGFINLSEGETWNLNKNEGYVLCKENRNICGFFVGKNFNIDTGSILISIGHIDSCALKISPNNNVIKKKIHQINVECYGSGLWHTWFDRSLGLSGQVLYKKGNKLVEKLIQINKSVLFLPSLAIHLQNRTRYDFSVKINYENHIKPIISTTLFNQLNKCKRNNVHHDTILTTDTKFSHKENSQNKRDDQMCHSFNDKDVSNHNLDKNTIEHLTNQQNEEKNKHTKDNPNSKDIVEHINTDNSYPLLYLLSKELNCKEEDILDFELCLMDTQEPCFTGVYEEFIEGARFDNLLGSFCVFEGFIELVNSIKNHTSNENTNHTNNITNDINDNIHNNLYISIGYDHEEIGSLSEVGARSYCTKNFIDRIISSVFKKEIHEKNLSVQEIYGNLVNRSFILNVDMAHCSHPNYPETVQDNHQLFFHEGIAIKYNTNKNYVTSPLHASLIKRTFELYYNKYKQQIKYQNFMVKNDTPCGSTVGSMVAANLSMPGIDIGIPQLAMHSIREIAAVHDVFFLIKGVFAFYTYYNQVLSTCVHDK"}, "[5]": {"target": "T5, Replicative DNA helicase DnaB (Mycobacterium tuberculosis, UniProt P9WMR3)", "T5 sequence (P9WMR3 whole entry)": "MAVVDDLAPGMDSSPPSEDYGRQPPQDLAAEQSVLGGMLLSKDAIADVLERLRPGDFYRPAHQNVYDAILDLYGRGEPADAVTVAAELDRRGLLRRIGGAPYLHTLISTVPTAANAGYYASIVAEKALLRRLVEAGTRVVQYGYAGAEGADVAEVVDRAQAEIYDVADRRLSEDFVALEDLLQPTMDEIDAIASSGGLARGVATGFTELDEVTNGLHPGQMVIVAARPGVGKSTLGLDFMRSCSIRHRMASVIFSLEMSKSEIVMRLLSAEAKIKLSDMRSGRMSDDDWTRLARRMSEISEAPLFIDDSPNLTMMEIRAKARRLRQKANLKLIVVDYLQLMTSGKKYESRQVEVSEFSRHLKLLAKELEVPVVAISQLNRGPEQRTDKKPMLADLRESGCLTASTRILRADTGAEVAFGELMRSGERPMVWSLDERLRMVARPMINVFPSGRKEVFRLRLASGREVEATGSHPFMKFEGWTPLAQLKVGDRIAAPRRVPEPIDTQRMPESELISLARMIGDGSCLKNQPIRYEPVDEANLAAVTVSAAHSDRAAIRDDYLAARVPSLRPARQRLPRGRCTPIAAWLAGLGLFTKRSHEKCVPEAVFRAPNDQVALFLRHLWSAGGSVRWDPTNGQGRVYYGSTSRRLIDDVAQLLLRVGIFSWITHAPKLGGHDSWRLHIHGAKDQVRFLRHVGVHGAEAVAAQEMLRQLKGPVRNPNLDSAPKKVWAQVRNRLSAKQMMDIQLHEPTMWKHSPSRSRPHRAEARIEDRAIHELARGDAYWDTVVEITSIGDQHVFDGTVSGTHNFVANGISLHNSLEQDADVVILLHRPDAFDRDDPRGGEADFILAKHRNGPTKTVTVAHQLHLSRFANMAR", "experiment": "DnaB intein splicing inhibitors, dose response, biochemical, cell-free fluorescence (AID 449749)", "assay_type": "functional"}, "[6]": {"target": "Intestinal-type alkaline phosphatase (Mus musculus, UniProt P24822)", "sequence (P24822 whole entry)": "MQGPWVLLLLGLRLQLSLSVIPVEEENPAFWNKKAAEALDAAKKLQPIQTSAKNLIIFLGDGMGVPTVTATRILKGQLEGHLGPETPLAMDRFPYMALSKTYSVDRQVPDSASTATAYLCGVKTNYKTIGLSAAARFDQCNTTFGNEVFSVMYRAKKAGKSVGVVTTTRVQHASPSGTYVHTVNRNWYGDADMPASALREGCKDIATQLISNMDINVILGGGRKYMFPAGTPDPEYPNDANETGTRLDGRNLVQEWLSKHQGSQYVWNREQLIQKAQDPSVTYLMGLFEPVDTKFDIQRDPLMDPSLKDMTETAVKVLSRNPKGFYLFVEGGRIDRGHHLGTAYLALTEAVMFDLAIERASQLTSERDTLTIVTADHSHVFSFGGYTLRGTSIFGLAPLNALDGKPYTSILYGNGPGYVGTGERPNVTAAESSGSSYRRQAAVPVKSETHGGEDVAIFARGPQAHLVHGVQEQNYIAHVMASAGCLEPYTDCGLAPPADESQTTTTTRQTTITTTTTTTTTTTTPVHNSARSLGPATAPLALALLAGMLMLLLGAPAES", "experiment": "PubChem AID 488785", "assay_type": "functional"}, "[7]": {"target": "Intestinal-type alkaline phosphatase (Homo sapiens, UniProt P09923)", "sequence (P09923 whole entry)": "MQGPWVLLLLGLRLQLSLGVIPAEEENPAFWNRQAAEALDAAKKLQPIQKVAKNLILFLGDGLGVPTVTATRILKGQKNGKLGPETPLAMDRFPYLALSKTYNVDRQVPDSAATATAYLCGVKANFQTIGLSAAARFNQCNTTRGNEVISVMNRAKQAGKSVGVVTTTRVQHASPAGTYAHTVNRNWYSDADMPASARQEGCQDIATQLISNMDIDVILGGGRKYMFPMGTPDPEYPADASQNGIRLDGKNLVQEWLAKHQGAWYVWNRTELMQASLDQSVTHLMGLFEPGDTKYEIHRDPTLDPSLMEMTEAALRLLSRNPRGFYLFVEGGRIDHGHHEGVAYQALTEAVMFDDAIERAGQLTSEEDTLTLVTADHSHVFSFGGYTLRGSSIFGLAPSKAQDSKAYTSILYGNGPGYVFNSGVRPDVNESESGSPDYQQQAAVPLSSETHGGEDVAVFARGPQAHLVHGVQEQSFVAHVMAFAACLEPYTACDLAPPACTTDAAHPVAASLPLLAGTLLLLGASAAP", "experiment": "activation of human intestinal alkaline phosphatase – biochemical, dose response (AID 488873)", "assay_type": "functional"}, "[8]": {"target": "T6, Rac GTPase-activating protein 1 (Homo sapiens, UniProt Q9H0H5)", "T6 sequence (Q9H0H5 whole entry)": "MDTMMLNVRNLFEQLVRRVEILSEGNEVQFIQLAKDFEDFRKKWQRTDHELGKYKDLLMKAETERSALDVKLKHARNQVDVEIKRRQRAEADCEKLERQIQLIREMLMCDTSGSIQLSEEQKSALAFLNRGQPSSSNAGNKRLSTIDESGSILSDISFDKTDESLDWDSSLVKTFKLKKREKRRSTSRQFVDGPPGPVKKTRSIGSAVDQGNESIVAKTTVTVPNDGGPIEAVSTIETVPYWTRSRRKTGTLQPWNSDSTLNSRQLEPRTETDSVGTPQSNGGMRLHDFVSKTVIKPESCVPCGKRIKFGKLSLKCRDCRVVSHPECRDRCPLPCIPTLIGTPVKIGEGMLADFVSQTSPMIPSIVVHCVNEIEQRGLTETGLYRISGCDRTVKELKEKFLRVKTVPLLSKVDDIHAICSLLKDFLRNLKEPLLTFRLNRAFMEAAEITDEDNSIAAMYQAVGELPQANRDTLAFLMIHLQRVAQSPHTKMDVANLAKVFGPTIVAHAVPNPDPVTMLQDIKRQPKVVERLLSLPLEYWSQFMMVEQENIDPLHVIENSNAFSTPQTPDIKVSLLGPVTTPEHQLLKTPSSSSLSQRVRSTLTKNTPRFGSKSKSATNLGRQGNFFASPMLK", "experiment": "blockers of MgcRacGAP-driven Rac1 GTP hydrolysis – biochemical, ADP Hunter fluorescence, primary and confirmatory, confirmation (AID 624330)", "assay_type": "functional"}, "Procathepsin L": {"target": "Procathepsin L (Homo sapiens, UniProt P07711)", "sequence (P07711 whole entry)": "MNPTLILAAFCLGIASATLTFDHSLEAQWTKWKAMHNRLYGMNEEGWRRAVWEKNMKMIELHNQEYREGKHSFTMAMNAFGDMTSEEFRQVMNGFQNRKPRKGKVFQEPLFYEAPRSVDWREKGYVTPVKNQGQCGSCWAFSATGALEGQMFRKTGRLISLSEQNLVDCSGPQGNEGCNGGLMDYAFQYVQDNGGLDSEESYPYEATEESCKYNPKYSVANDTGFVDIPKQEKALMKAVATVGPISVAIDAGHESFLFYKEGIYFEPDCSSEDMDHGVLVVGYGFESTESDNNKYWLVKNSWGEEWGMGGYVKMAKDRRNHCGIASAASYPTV"}}, "note": "Calls of active or inactive are those of the source.", "data": [{"smiles": "CCC(CO)(C(=O)OC1C[N+]2(C)CCC1CC2)c1ccccc1", "note": "(stereo not drawn)", "values": [{"measurement": "IC50", "setting": "[1]", "result": "2.09 µM (active)"}, {"measurement": "IC50", "setting": "[2]", "result": "2.25 µM (active)"}]}, {"smiles": "CCn1c(C)[n+](CC)c2cc(S(=O)(=O)NC)ccc21", "values": [{"measurement": "IC50", "setting": "[1]", "result": "17.5 µM (active)"}, {"measurement": "IC50", "setting": "[2]", "result": "6.81 µM (active)"}]}, {"smiles": "O=C(NCc1ccc2c(c1)OCO2)Nc1ccc2nc(-c3ccco3)c(-c3ccco3)nc2c1", "values": [{"measurement": "IC50", "setting": "[3]", "result": "2.15 µM (active)"}]}, {"smiles": "Oc1cc(O)c2c(c1)O[C@H](c1ccc(O)c(O)c1)[C@H](O)C2", "note": "[(-)-EPICATECHIN]", "values": [{"measurement": "EC50", "setting": "Protein RecA", "result": "> 380 µM (inconclusive)"}, {"measurement": "IC50", "setting": "[4]", "result": "0.407 µM (active)"}, {"measurement": "IC50", "setting": "Aspartyl aminopeptidase", "result": "1.38 µM (active)"}, {"measurement": "AC50", "setting": "[5]", "result": "> 380 µM (inactive)"}, {"measurement": "IC50", "setting": "[6]", "result": "1.36 µM (active)"}, {"measurement": "EC50", "setting": "[7]", "result": "> 100 µM (inactive)"}, {"measurement": "IC50", "setting": "[8]", "result": "206 µM (active)"}, {"measurement": "IC50", "setting": "Procathepsin L", "result": "> 59.6 µM (not active)"}]}]}
